pEC50: −log10 of the molar value.
Experiments:
[1] = system: HBV replication in HepAD38 cells; assay: Anti-HBV replication assay in HepAD38 cells (QPCR of extracellular HBV DNA); format: cell-based, HBV (genotype D, serotype ayw); conditions: Hepatitis B virus, 168 h, 7 days incubation, extracellular HBV DNA by QPCR, read-out: Anti-HBV EC50
In short: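 Tet-off HepAD38, 7-day compound exposure ([…], 1 log10 steps, DMSO vehicle), 37 °C. Extracellular HBV DNA by QPCR, copies/mL via standard curve, % inhibition vs vehicle, EC50 by 4-parameter regression. Entecavir as positive control.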

[2] = In vitro cytotoxicity assay (MTT cell viability) in HepG2 cells; format: cell-based, human; conditions: human
In short: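 Using MTT conversion as the viability measure, HepG2 cells were incubated with compounds for 7 days (30 μM to 1.0 nM). Absorbance at 492 nm was normalized to vehicle and fitted to give CC50.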

Compound | pEC50 [1] | CC50 at 7 days [2]
CC(=O)N1CCn2c(C(=O)C(=O)NC(C)(C)C)cc(C(=O)Nc3ccc(F)c(C)c3)c2C1 [Example 590, 2-acetyl-6-(2-(tert-butylamino)-2-oxoacetyl)-N-(4-fluoro-3-methylphenyl)-1,2,3,4-tetrahydropyrrolo[1,2-a]pyrazine-8-carboxamide] | 6.00 to 6.30 | > 30 µM
Cc1cc(NC(=O)c2c(C)c(C(=O)C(=O)NC3(CN4CCOCC4)CCCC3)n(C)c2C)ccc1F [Example 595, N-(4-fluoro-3-methylphenyl)-1,2,4-trimethyl-5-(2-((1-(morpholinomethyl)cyclopentyl)amino)-2-oxoacetyl)-1H-pyrrole-3-carboxamide] | > 7.30 | > 30 µM
Cc1cc(NC(=O)c2c(C)c(C(=O)C(=O)NC3(CN4CCOCC4)CCCCC3)n(C)c2C)ccc1F [Example 596, N-(4-fluoro-3-methylphenyl)-1,2,4-trimethyl-5-(2-((1-(morpholinomethyl)cyclohexyl)amino)-2-oxoacetyl)-1H-pyrrole-3-carboxamide] | > 7.30 | > 30 µM
Cc1cc(NC(=O)c2c(C)c(C(=O)C(=O)NC(C)(C)C(=O)N3CCC(O)CC3)n(C)c2C)ccc1F [Example 597, N-(4-fluoro-3-methylphenyl)-5-(2-((1-(4-hydroxypiperidin-1-yl)-2-methyl-1-oxopropan-2-yl)amino)-2-oxoacetyl)-1,2,4-trimethyl-1H-pyrrole-3-carboxamide] | > 7.30 | > 30 µM
Cc1cc(NC(=O)c2c(C)c(C(=O)C(=O)NC3CC4(CC(O)C4)C3)n(C)c2C)ccc1F (stereo not drawn) [Example 598, N-(4-fluoro-3-methylphenyl)-5-(2-((6-hydroxyspiro[3.3]heptan-2-yl)amino)-2-oxoacetyl)-1,2,4-trimethyl-1H-pyrrole-3-carboxamide] | > 7.30 | > 30 µM
Cc1cc(NC(=O)c2c(C)c(C(=O)C(=O)NC3(CO)CCCCC3)n(C)c2C)ccc1F [Example 599, N-(4-fluoro-3-methylphenyl)-5-(2-((1-(hydroxymethyl)cyclohexyl)amino)-2-oxoacetyl)-1,2,4-trimethyl-1H-pyrrole-3-carboxamide] | > 7.30 | > 30 µM
Cc1c(C(=O)Nc2cccc(Cl)c2)c(C)n(C)c1C(=O)C(=O)NC(C)(C)CO [Example 600, N-(3-chlorophenyl)-5-(2-((1-hydroxy-2-methylpropan-2-yl)amino)-2-oxoacetyl)-1,2,4-trimethyl-1H-pyrrole-3-carboxamide] | > 7.30 | > 30 µM
Cc1c(C(=O)Nc2cccc(Cl)c2)c(C)n(C)c1C(=O)C(=O)NC(C)(C)CN1CCOCC1 [Example 601, N-(3-chlorophenyl)-1,2,4-trimethyl-5-(2-((2-methyl-1-morpholinopropan-2-yl)amino)-2-oxoacetyl)-1H-pyrrole-3-carboxamide] | > 7.30 | > 30 µM
Cc1c(C(=O)Nc2cccc(Cl)c2)c(C)n(C)c1C(=O)C(=O)N[C@H]1CC[C@@H](O)CC1 [Example 602, N-(3-chlorophenyl)-5-(2-(((1s,4s)-4-hydroxycyclohexyl)amino)-2-oxoacetyl)-1,2,4-trimethyl-1H-pyrrole-3-carboxamide] | > 7.30 | > 30 µM
Cc1c(C(=O)Nc2cccc(Cl)c2)c(C)n(C)c1C(=O)C(=O)N[C@H](C)C(F)(F)F [Example 603, (R)-N-(3-chlorophenyl)-1,2,4-trimethyl-5-(2-oxo-2-((1,1,1-trifluoropropan-2-yl)amino)acetyl)-1H-pyrrole-3-carboxamide] | > 7.30 | 5 to 30 µM
Cc1c(C(=O)Nc2cccc(Cl)c2)c(C)n(C)c1C(=O)C(=O)NC1(C(F)(F)F)CCOCC1 [Example 604, N-(3-chlorophenyl)-1,2,4-trimethyl-5-(3-oxo-2-((4-(trifluoromethyl)tetrahydro-2H-pyran-4-yl)amino)acetyl)-1H-pyrrole-3-carboxamide] | > 7.30 | 5 to 30 µM
Cc1cc(NC(=O)c2c(C)c(C(=O)C(=O)NC3(C(=O)N[C@H](C)C(F)(F)F)CCOCC3)n(C)c2C)ccc1F [Example 605, (R)-N-(4-fluoro-3-methylphenyl)-1,2,4-trimethyl-5-(2-oxo-2-((4-((1,1,1-trifluoropropan-2-yl)carbamoyl)tetrahydro-2H-pyran-4-yl)amino)acetyl)-1H-pyrrole-3-carboxamide] | > 7.30 | > 30 µM
Cc1nc2c(s1)C(NC(=O)C(=O)c1c(C)c(C(=O)Nc3cnc(F)c(C)c3)c(C)n1C)CCC2 (stereo not drawn) [Example 606, N-(6-fluoro-5-methylpyridin-3-yl)-1,2,4-trimethyl-5-(2-((2-methyl-4,5,6,7-tetrahydrobenzo[d]thiazol-7-yl)amino)-2-oxoacetyl)-1H-pyrrole-3-carboxamide] | > 7.30 | > 30 µM
Cc1nc2c(s1)C(NC(=O)C(=O)c1c(C)c(C(=O)Nc3ccnc(F)c3)c(C)n1C)CCC2 (stereo not drawn) [Example 607, N-(2-fluoropyridin-4-yl)-1,2,4-trimethyl-5-(2-((2-methyl-4,5,6,7-tetrahydrobenzo[d]thiazol-7-yl)amino)-2-oxoacetyl)-1H-pyrrole-3-carboxamide] | > 7.30 | > 30 µM
Cc1cc(NC(=O)c2c(C)c(C(=O)C(=O)NC3COCC(O)C3)n(C)c2C)ccc1F (stereo not drawn) [Example 608, N-(4-fluoro-3-methylphenyl)-5-(2-((5-hydroxytetrahydro-2H-pyran-3-yl)amino)-2-oxoacetyl)-1,2,4-trimethyl-1H-pyrrole-3-carboxamide] | > 7.30 | > 30 µM
Cc1cc(NC(=O)c2c(C)c(C(=O)C(=O)NC3CCN(C)C(=O)C3)n(C)c2C)ccc1F (stereo not drawn) [Example 609, N-(4-fluoro-3-methylphenyl)-1,2,4-trimethyl-5-(2-((1-methyl-2-oxopiperidin-4-yl)amino)-2-oxoacetyl)-1H-pyrrole-3-carboxamide] | > 7.30 | > 30 µM
Cc1cc(NC(=O)c2c(C)c(C(=O)C(=O)NC3CC(=O)NC(=O)C3)n(C)c2C)ccc1F [Example 610, 5-(2-((2,6-dioxopiperidin-4-yl)amino)-2-oxoacetyl)-N-(4-fluoro-3-methylphenyl)-1,2,4-trimethyl-1H-pyrrole-3-carboxamide] | > 7.30 | > 30 µM
Cc1cc(NC(=O)c2c(C)c(C(=O)C(=O)N[C@H]3CNC(=O)C3)n(C)c2C)ccc1F [Example 611, (R)-N-(4-fluoro-3-methylphenyl)-1,2,4-trimethyl-5-(2-oxo-2-((5-oxopyrrolidin-3-yl)amino)acetyl)-1H-pyrrole-3-carboxamide] | > 7.30 | > 30 µM
CC(=O)N1CCC(C)(NC(=O)C(=O)c2c(C)c(C(=O)Nc3ccc(F)c(C)c3)c(C)n2C)CC1 [Example 612, 5-(2-((1-acetyl-4-methylpiperidin-4-yl)amino)-2-oxoacetyl)-N-(4-fluoro-3-methylphenyl)-1,2,4-trimethyl-1H-pyrrole-3-carboxamide] | > 7.30 | > 30 µM
Cc1cc(NC(=O)c2c(C)c(C(=O)C(=O)NC3(C)CCN(S(C)(=O)=O)CC3)n(C)c2C)ccc1F [Example 613, N-(4-fluoro-3-methylphenyl)-1,2,4-trimethyl-5-(2-((4-methyl-1-(methylsulfonyl)piperidin-4-yl)amino)-2-oxoacetyl)-1H-pyrrole-3-carboxamide] | > 7.30 | > 30 µM
CCNC(=O)N1CCC(C)(NC(=O)C(=O)c2c(C)c(C(=O)Nc3ccc(F)c(C)c3)c(C)n2C)CC1 [Example 614, N-ethyl-4-(2-(4-((4-fluoro-3-methylphenyl)carbamoyl)-1,3,5-trimethyl-1H-pyrrol-2-yl)-2-oxoacetamido)-4-methylpiperidine-1-carboxamide] | > 7.30 | > 30 µM
Cc1c(C(=O)Nc2cccc(Cl)c2)c(C)n(C)c1C(=O)C(=O)N[C@]1(C)CC[C@@H](O)CC1 [Example 615, N-(3-chlorophenyl)-5-(2-(((1r,4r)-4-hydroxy-1-methylcyclohexyl)amino)-2-oxoacetyl)-1,2,4-trimethyl-1H-pyrrole-3-carboxamide] | > 7.30 | > 30 µM
Cc1c(C(=O)Nc2ccc(F)c(F)c2)c(C)n(C)c1C(=O)C(=O)NC1(CO)CCCCC1 [Example 616, N-(3,4-difluorophenyl)-5-(2-((1-(hydroxymethyl)cyclohexyl)amino)-2-oxoacetyl)-1,2,4-trimethyl-1H-pyrrole-3-carboxamide] | > 7.30 | > 30 µM
Cc1cc(NC(=O)c2c(C)c(C(=O)C(=O)NC(C)(C)C(C)(C)O)n(C)c2C)ccc1F [Example 617, N-(4-fluoro-3-methylphenyl)-5-(2-((3-hydroxy-2,3-dimethylbutan-2-yl)amino)-2-oxoacetyl)-1,2,4-trimethyl-1H-pyrrole-3-carboxamide] | > 7.30 | > 30 µM
Cc1cc(NC(=O)c2c(C)c(C(=O)C(=O)N[C@H]3CCC[C@H](O)C3)n(C)c2C)ccc1F [Example 618, N-(4-fluoro-3-methylphenyl)-5-(2-(((1S,3S)-3-hydroxycyclohexyl)amino)-2-oxoacetyl)-1,2,4-trimethyl-1H-pyrrole-3-carboxamide] | > 7.30 | > 30 µM
Cc1cc(NC(=O)c2c(C)c(C(=O)C(=O)N[C@]3(C)C[C@@H](O)C3)n(C)c2C)ccc1F [Example 619] | > 7.30 | > 30 µM
Cc1cc(NC(=O)c2c(C)c(C(=O)C(=O)N[C@H]3C[C@H](O)C34CCOCC4)n(C)c2C)ccc1F [Example 620, N-(4-fluoro-3-methylphenyl)-5-(2-(((1S,3S)-3-hydroxy-7-oxaspiro[3.5]nonan-1-yl)amino)-2-oxoacetyl)-1,2,4-trimethyl-1H-pyrrole-3-carboxamide] | > 7.30 | > 30 µM
